Measured values reported in the NIST ThermoML archive (doi:10.1021/je700022b).
± gives the expanded uncertainty stated by the source.

Test: xn = mol fraction of the nth substance listed
Conditions: Liquid; for mass density: Constant-volume piezometry
[1] = 293.15 K, 10000 kPa, x2 = 0.056
[2] = 293.15 K, 10000 kPa, x2 = 0.123
[3] = 293.15 K, 10000 kPa, x2 = 0.229
[4] = 293.15 K, 10000 kPa, x2 = 0.332
[5] = 293.15 K, 15000 kPa, x2 = 0.056
[6] = 293.15 K, 15000 kPa, x2 = 0.123
[7] = 293.15 K, 15000 kPa, x2 = 0.229
[8] = 293.15 K, 15000 kPa, x2 = 0.332
[9] = 293.15 K, 20000 kPa, x2 = 0.056
[10] = 293.15 K, 20000 kPa, x2 = 0.123
[11] = 293.15 K, 20000 kPa, x2 = 0.229
[12] = 293.15 K, 20000 kPa, x2 = 0.332
[13] = 313.15 K, 10000 kPa, x2 = 0.056
[14] = 313.15 K, 10000 kPa, x2 = 0.123
[15] = 313.15 K, 10000 kPa, x2 = 0.229
[16] = 313.15 K, 10000 kPa, x2 = 0.332
[17] = 313.15 K, 15000 kPa, x2 = 0.056
[18] = 313.15 K, 15000 kPa, x2 = 0.123
[19] = 313.15 K, 15000 kPa, x2 = 0.229
[20] = 313.15 K, 15000 kPa, x2 = 0.332
[21] = 313.15 K, 20000 kPa, x2 = 0.056
[22] = 313.15 K, 20000 kPa, x2 = 0.123
[23] = 313.15 K, 20000 kPa, x2 = 0.229
[24] = 313.15 K, 20000 kPa, x2 = 0.332
[25] = 333.15 K, 10000 kPa, x2 = 0.056
[26] = 333.15 K, 10000 kPa, x2 = 0.123
[27] = 333.15 K, 10000 kPa, x2 = 0.229
[28] = 333.15 K, 10000 kPa, x2 = 0.332
[29] = 333.15 K, 15000 kPa, x2 = 0.056
[30] = 333.15 K, 15000 kPa, x2 = 0.123
[31] = 333.15 K, 15000 kPa, x2 = 0.229
[32] = 333.15 K, 15000 kPa, x2 = 0.332
[33] = 333.15 K, 20000 kPa, x2 = 0.056
[34] = 333.15 K, 20000 kPa, x2 = 0.123
[35] = 333.15 K, 20000 kPa, x2 = 0.229
[36] = 333.15 K, 20000 kPa, x2 = 0.332
[37] = 353.15 K, 10000 kPa, x2 = 0.056
[38] = 353.15 K, 10000 kPa, x2 = 0.123
[39] = 353.15 K, 10000 kPa, x2 = 0.229
[40] = 353.15 K, 10000 kPa, x2 = 0.332
[41] = 353.15 K, 15000 kPa, x2 = 0.056
[42] = 353.15 K, 15000 kPa, x2 = 0.123
[43] = 353.15 K, 15000 kPa, x2 = 0.229
[44] = 353.15 K, 15000 kPa, x2 = 0.332
[45] = 353.15 K, 20000 kPa, x2 = 0.056
[46] = 353.15 K, 20000 kPa, x2 = 0.123
[47] = 353.15 K, 20000 kPa, x2 = 0.229
[48] = 353.15 K, 20000 kPa, x2 = 0.332

## CCCCn1cc[n+](C)c1.F[P-](F)(F)(F)(F)F [1-butyl-3-methylimidazolium hexafluorophosphate] + O=C=O
[1]
  mass density: 1371 ± 6 kg/m3
  viscosity: 372 ± 51 mPa·s
[2]
  mass density: 1368 ± 6 kg/m3
  viscosity: 277 ± 34 mPa·s
[3]
  mass density: 1361 ± 5 kg/m3
  viscosity: 135 ± 12 mPa·s
[4]
  mass density: 1354 ± 5 kg/m3
  viscosity: 89.2 ± 6.3 mPa·s
293.15 K, 10000 kPa, x2 = 0.44
  mass density: 1346 ± 5 kg/m3
  viscosity: 43.9 ± 2.7 mPa·s
293.15 K, 15000 kPa, x2 = 0
  mass density: 1377 ± 6 kg/m3
  viscosity: 468 ± 71 mPa·s
[5]
  mass density: 1374 ± 6 kg/m3
  viscosity: 397 ± 56 mPa·s
[6]
  mass density: 1371 ± 6 kg/m3
  viscosity: 287 ± 35 mPa·s
[7]
  mass density: 1365 ± 6 kg/m3
  viscosity: 144 ± 13 mPa·s
[8]
  mass density: 1358 ± 5 kg/m3
  viscosity: 91.9 ± 6.5 mPa·s
293.15 K, 15000 kPa, x2 = 0.44
  mass density: 1351 ± 5 kg/m3
  viscosity: 45.9 ± 2.8 mPa·s
293.15 K, 20000 kPa, x2 = 0
  mass density: 1379 ± 6 kg/m3
  viscosity: 504 ± 78 mPa·s
[9]
  mass density: 1377 ± 6 kg/m3
  viscosity: 424 ± 61 mPa·s
[10]
  mass density: 1375 ± 6 kg/m3
  viscosity: 310 ± 40 mPa·s
[11]
  mass density: 1368 ± 6 kg/m3
  viscosity: 150 ± 14 mPa·s
[12]
  mass density: 1362 ± 5 kg/m3
  viscosity: 100 ± 7 mPa·s
293.15 K, 20000 kPa, x2 = 0.44
  mass density: 1355 ± 5 kg/m3
  viscosity: 46.8 ± 2.9 mPa·s
[13]
  mass density: 1350 ± 5 kg/m3
  viscosity: 119 ± 10 mPa·s
[14]
  mass density: 1342 ± 5 kg/m3
  viscosity: 84.8 ± 5.9 mPa·s
[15]
  mass density: 1329 ± 5 kg/m3
  viscosity: 54.1 ± 3.3 mPa·s
[16]
  mass density: 1313 ± 5 kg/m3
  viscosity: 36.9 ± 2.3 mPa·s
313.15 K, 10000 kPa, x2 = 0.44
  mass density: 1288 ± 5 kg/m3
  viscosity: 24.7 ± 1.5 mPa·s
313.15 K, 15000 kPa, x2 = 0
  mass density: 1362 ± 6 kg/m3
  viscosity: 140 ± 12 mPa·s
[17]
  mass density: 1356 ± 5 kg/m3
  viscosity: 125 ± 10 mPa·s
[18]
  mass density: 1351 ± 5 kg/m3
  viscosity: 90.1 ± 6.4 mPa·s
[19]
  mass density: 1344 ± 5 kg/m3
  viscosity: 55.8 ± 3.4 mPa·s
[20]
  mass density: 1337 ± 5 kg/m3
  viscosity: 39.9 ± 2.5 mPa·s
313.15 K, 15000 kPa, x2 = 0.44
  mass density: 1323 ± 5 kg/m3
  viscosity: 24.8 ± 1.5 mPa·s
313.15 K, 20000 kPa, x2 = 0
  mass density: 1364 ± 6 kg/m3
  viscosity: 151 ± 14 mPa·s
[21]
  mass density: 1360 ± 6 kg/m3
  viscosity: 132 ± 11 mPa·s
[22]
  mass density: 1356 ± 5 kg/m3
  viscosity: 92.4 ± 6.7 mPa·s
[23]
  mass density: 1350 ± 5 kg/m3
  viscosity: 61.2 ± 3.8 mPa·s
[24]
  mass density: 1342 ± 5 kg/m3
  viscosity: 41.6 ± 2.6 mPa·s
313.15 K, 20000 kPa, x2 = 0.44
  mass density: 1330 ± 5 kg/m3
  viscosity: 26.8 ± 1.7 mPa·s
[25]
  mass density: 1327 ± 5 kg/m3
  viscosity: 49.3 ± 3.1 mPa·s
[26]
  mass density: 1313 ± 5 kg/m3
  viscosity: 40.6 ± 2.5 mPa·s
[27]
  mass density: 1293 ± 5 kg/m3
  viscosity: 27.2 ± 1.7 mPa·s
[28]
  mass density: 1268 ± 5 kg/m3
  viscosity: 20.5 ± 1.3 mPa·s
333.15 K, 10000 kPa, x2 = 0.44
  mass density: 1223 ± 5 kg/m3
  viscosity: 16.1 ± 1 mPa·s
333.15 K, 15000 kPa, x2 = 0
  mass density: 1346 ± 5 kg/m3
  viscosity: 61 ± 3.8 mPa·s
[29]
  mass density: 1338 ± 5 kg/m3
  viscosity: 51.9 ± 3.2 mPa·s
[30]
  mass density: 1330 ± 5 kg/m3
  viscosity: 42.8 ± 2.7 mPa·s
[31]
  mass density: 1321 ± 5 kg/m3
  viscosity: 28.3 ± 1.8 mPa·s
[32]
  mass density: 1308 ± 5 kg/m3
  viscosity: 21.1 ± 1.3 mPa·s
333.15 K, 15000 kPa, x2 = 0.44
  mass density: 1286 ± 5 kg/m3
  viscosity: 16.5 ± 1 mPa·s
333.15 K, 20000 kPa, x2 = 0
  mass density: 1349 ± 5 kg/m3
  viscosity: 63.2 ± 4 mPa·s
[33]
  mass density: 1343 ± 5 kg/m3
  viscosity: 54.5 ± 3.3 mPa·s
[34]
  mass density: 1338 ± 5 kg/m3
  viscosity: 44.2 ± 2.8 mPa·s
[35]
  mass density: 1329 ± 5 kg/m3
  viscosity: 29.1 ± 1.8 mPa·s
[36]
  mass density: 1319 ± 5 kg/m3
  viscosity: 21.7 ± 1.3 mPa·s
333.15 K, 20000 kPa, x2 = 0.44
  mass density: 1304 ± 5 kg/m3
  viscosity: 17 ± 1.1 mPa·s
[37]
  mass density: 1306 ± 5 kg/m3
  viscosity: 25.2 ± 1.6 mPa·s
[38]
  mass density: 1286 ± 5 kg/m3
  viscosity: 21.6 ± 1.4 mPa·s
[39]
  mass density: 1260 ± 5 kg/m3
  viscosity: 15.8 ± 1 mPa·s
[40]
  mass density: 1226 ± 5 kg/m3
  viscosity: 12.3 ± 0.8 mPa·s
353.15 K, 10000 kPa, x2 = 0.44
  mass density: 1162 ± 5 kg/m3
  viscosity: 10.7 ± 0.7 mPa·s
353.15 K, 15000 kPa, x2 = 0
  mass density: 1330 ± 5 kg/m3
  viscosity: 29.3 ± 1.8 mPa·s
[41]
  mass density: 1319 ± 5 kg/m3
  viscosity: 26.4 ± 1.7 mPa·s
[42]
  mass density: 1310 ± 5 kg/m3
  viscosity: 22.6 ± 1.4 mPa·s
[43]
  mass density: 1299 ± 5 kg/m3
  viscosity: 16.5 ± 1 mPa·s
[44]
  mass density: 1284 ± 5 kg/m3
  viscosity: 12.7 ± 0.8 mPa·s
353.15 K, 15000 kPa, x2 = 0.44
  mass density: 1255 ± 5 kg/m3
  viscosity: 10.8 ± 0.7 mPa·s
353.15 K, 20000 kPa, x2 = 0
  mass density: 1332 ± 5 kg/m3
  viscosity: 30.5 ± 1.9 mPa·s
[45]
  mass density: 1325 ± 5 kg/m3
  viscosity: 28 ± 1.8 mPa·s
[46]
  mass density: 1319 ± 5 kg/m3
  viscosity: 23.4 ± 1.5 mPa·s
[47]
  mass density: 1310 ± 5 kg/m3
  viscosity: 16.9 ± 1.1 mPa·s
[48]
  mass density: 1298 ± 5 kg/m3
  viscosity: 12.8 ± 0.8 mPa·s
353.15 K, 20000 kPa, x2 = 0.44
  mass density: 1278 ± 5 kg/m3
  viscosity: 10.9 ± 0.7 mPa·s
